Measurements as given in patent US20200237766A1, “PKM2 ACTIVATORS IN COMBINATION WITH REACTIVE OXYGEN SPECIES FOR TREATMENT OF CANCER” (TOLERO PHARMACEUTICALS, INC., priority 2017, published 2020).
Structures can show the parent of a compound that is named as a salt. Where two headings read alike, the source gives them in different places.

How the values were obtained:
A549 cells [1] = experiment: Cell-titer-Glo cell viability, A549 cells; type: cell-based, human
[2] = test system: A549 human lung cancer cells; experiment: Subcutaneous A549 human lung cancer xenograft model in BALB/c nude mice (Example 8); type: in vivo, Mus musculus; conditions: Group 2: Doxorubicin 2 mg/kg i.v. Q2D × 3 weeks + vehicle p.o.
Procedure: A549 human lung cancer cells were inoculated in BALB/c nude mice and treatment was initiated when tumors reached a mean volume of approximately 100 mm^3.
4.5 Randomization 60 mice were enrolled in the study. All animals were randomly allocated to the 6 different study groups. […] Randomization was performed based on “Matched distribution” randomization method using multi-task method (StudyDirector™ software, version 3.1.399.19) on day 13.
After tumor cell inoculation, the animals were checked daily for morbidity and mortality. At the time of routine monitoring, the animals were checked for any effects of tumor growth and treatments on behavior such as mobility, food and water consumption, body weight gain/loss (body weight was measured twice per week, or based on request after randomization), and any other abnormalities. Mortality and observed clinical signs were recorded for individual animals.
Tumor volumes were measured twice weekly in two dimensions using a caliper, and the volume was expressed in mm^3 using the formula: V=(L×W×W)/2, where V is tumor volume, L is tumor length (the longest tumor dimension) and W is tumor width (the longest tumor dimension perpendicular to L).
Tumor weight was measured at the end of study based on the protocol. Dosing as well as tumor and body weight measurement were conducted in a Laminar Flow Cabinet.
Statistical analysis of differences in mean tumor volume among the groups was conducted by Independent-Samples T Test using the data collected.
All data were analyzed with SPSS (Statistical Product and Service Solutions) version 18.0 (IBM, Armonk, N.Y., U.S.). […] All tests were two-sided. P<0.05 was considered to be statistically significant.

A549 cells [3] = experiment: GSH-Glo glutathione level assay in A549 cells; type: cell-based, human; conditions: treated 48 hours, even at concentrations as low as 0.1 μM
Procedure: Cells were treated for 48 hours, and then glutathione levels were determined using a GSH-Glo assay kit and procedure from Promega.

PKM2 = PKM2 (Homo sapiens, UniProt P14618); experiment: PKM2 activation biochemical assay (AC50 / max. response vs fructose 1,6-bisphosphate); conditions: for Max. Resp. (%): % maximum response in a biochemical assay as compared with Fructose 1,6-bisphosphate
Sequence of PKM2 (P14618 whole entry): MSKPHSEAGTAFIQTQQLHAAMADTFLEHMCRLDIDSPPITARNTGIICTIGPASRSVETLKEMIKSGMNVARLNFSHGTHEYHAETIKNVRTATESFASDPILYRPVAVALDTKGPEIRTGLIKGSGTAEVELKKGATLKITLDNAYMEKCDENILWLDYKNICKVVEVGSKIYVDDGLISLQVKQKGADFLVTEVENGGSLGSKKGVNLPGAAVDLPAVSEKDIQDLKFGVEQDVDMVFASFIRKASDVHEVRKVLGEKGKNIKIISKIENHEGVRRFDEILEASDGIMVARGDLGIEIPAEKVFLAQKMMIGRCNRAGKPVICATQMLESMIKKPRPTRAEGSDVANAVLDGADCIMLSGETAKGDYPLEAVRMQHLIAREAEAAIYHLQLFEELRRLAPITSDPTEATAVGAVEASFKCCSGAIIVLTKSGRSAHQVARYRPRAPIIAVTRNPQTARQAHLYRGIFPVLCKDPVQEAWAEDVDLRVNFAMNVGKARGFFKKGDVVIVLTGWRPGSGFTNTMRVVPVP

[4] = Homo sapiens, A549 cells, anti-cancer drug alone, Cell-titer-Glo, read-out: EC50, cell viability
[5] = biochemical assay, read-out: PKM2 AC50

| Structure (SMILES) | Max. Resp. (%) (PKM2) | AC50 (PKM2; [5]) [nM] | further results |
| --- | --- | --- | --- |
| CNC(=O)c1cc(Oc2ccc(NC(=O)Nc3ccc(Cl)c(C(F)(F)F)c3)cc2)ccn1 [sorafenib] |  |  | EC50 (A549 cells [1]; A549 cells, in the presence of Compound 91 at 4 μM, Cell-titer-Glo, read-out: EC50, cell viability, in combination with Compound 91): 7130 nM; EC50 (A549 cells [1]; [4]): 30100 nM |
| COc1cccc2c1C(=O)c1c(O)c3c(c(O)c1C2=O)C[C@@](O)(C(=O)CO)C[C@@H]3O[C@H]1C[C@H](N)[C@H](O)[C@H](C)O1 [Doxorubicin, doxorubicin, reference compound] |  |  | Tumor Size (mm^3) on day 33 ([2]; Mean ± SEM): 723.15 ± 129.91 mm^3; Tumor Weight (mg) on day 33 ([2]; Mean ± SEM): 676.9 ± 107.8 mg; T/C (%) (tumor size) ([2]; day 33): 93%; T/C (%) (tumor weight) ([2]; day 33): 91%; TGI (%) (tumor size) ([2]; day 33): 7%; TGI (%) (tumor weight) ([2]; day 33): 9% |
| O=S(=O)(c1ccc2c(c1)OCCO2)N1CCN(S(=O)(=O)c2c(F)cccc2F)CC1 [DASA, reference compound] |  |  | glutathione levels (GSH-Glo) (A549 cells [3]): decreased levels of glutathione |
| C=CCNc1c(O)cc2c(O)c1C[C@@H](C)C[C@H](OC)[C@H](O)[C@@H](C)/C=C(\C)[C@H](OC(N)=O)[C@@H](OC)/C=C\C=C(/C)C(=O)N2 [IPI-504, retaspimycin hydrochloride] |  |  | EC50 (A549 cells [1]; Homo sapiens, A549, read-out: EC50, cell viability): 59.9 nM |
| CC(C)C[C@H](NC(=O)[C@H](Cc1ccccc1)NC(=O)c1cnccn1)B(O)O [bortezomib] |  |  | decrease in EC50 when used in combination with Compound 91 (A549 cells [1]; A549 cells, Compound 91 at 4 μM vs drug alone): ~2 fold; EC50 (A549 cells [1]; [4]): 43.4 nM; EC50 (A549 cells [1]; Homo sapiens, A549 cells, in the presence of Compound 91 at 4 μM, Cell-titer-Glo, read-out: EC50, cell viability, in combination with Compound 91): 27 nM |
| CO[C@H]1CC[C@H](N(Cc2ncccc2Cl)C(=O)c2cc(C(F)(F)F)n[nH]2)CC1 [Compound 56] | 48 |  | AC50 (PKM2): 2580 nM |
| Nc1cccc(Cl)c1CN(CC1CCN1)C(=O)c1cc(C(F)(F)F)n[nH]1 (stereo not drawn) [Compound 233] | 75 | 930 |  |
| O=C(c1cc(C(F)(F)F)n[nH]1)N(Cc1ccc(O)cc1F)C1CCCCC1 [Compound 139] | 100 | 152 |  |
| CC1CC(C)CN(CCN(Cc2ccccc2Cl)C(=O)c2cc(C(F)(F)F)n[nH]2)C1 (stereo not drawn) [Compound 188] | 60 | 46 |  |
| Nc1cccc(Cl)c1CN(CCN1CCCC(F)C1)C(=O)c1cc(C(F)(F)F)n[nH]1 (stereo not drawn) [Compound 236] | 73 | 160 |  |
| CN(C)CCCN(Cc1ccccc1Cl)C(=O)c1cc(C(F)(F)F)n[nH]1 [Compound 186] | 100 | 375 |  |
| O=C(c1cc(C(F)(F)F)n[nH]1)N(CCN1CCS(=O)(=O)CC1)Cc1cccc(F)c1F [Compound 111] | 64 | 13100 |  |
| CC(C)(C)CN(Cc1cccc2[nH]ccc12)C(=O)c1cc(C(F)(F)F)n[nH]1 [Compound 13] | 33 | 49100 |  |
| Nc1ccc(CN(CCN2CCCCCC2)C(=O)c2cc(C(F)(F)F)n[nH]2)c(Cl)c1 [Compound 207] | 75 | 170 |  |
| O=C(c1cc(C(F)(F)F)n[nH]1)N(CCC1CCOC1)Cc1c(Cl)cccc1Cl (stereo not drawn) [Compound 33] | 81 | 4030 |  |
| CCCN(CC)CCN(Cc1ccccc1Cl)C(=O)c1cc(C(F)(F)F)n[nH]1 [Compound 209] | 100 | 52 |  |
| Cn1cc(C(=O)c2cccc(Cl)c2Cl)cc1C(N)=O [CA2] |  | 17000 |  |
| O=C(c1cc(C2CC2)n[nH]1)N(CCC(F)(F)F)Cc1ccc(O)cc1F [Compound 129] |  |  | AC50 (PKM2): 10500 nM |
| Nc1cccc(Cl)c1CN(CCN1CCCC(F)CC1)C(=O)c1cc(C(F)(F)F)n[nH]1 (stereo not drawn) [Compound 243] | 100 | 106 |  |
| CN(C)Cc1c[nH]c2cccc(CN(CC3CCC3)C(=O)c3cc(Cl)n[nH]3)c12 [Compound 118] | 100 | 7000 |  |
| CC(CN(Cc1c(N)cccc1Cl)C(=O)c1cc(C(F)(F)F)n[nH]1)N1CCCC1 (stereo not drawn) [Compound 221] | 60 | 223 |  |
| CC(C)O[C@H]1CC[C@H](N(Cc2ccccc2Cl)C(=O)c2cc(C(F)(F)F)n[nH]2)CC1 [Compound 53] | 63 | 2290 |  |
| O=C(c1cc(C(F)(F)F)n[nH]1)N(Cc1ccc(O)cc1F)CC1CCC1 [Compound 1] | 100 |  |  |

| Structure (SMILES) | Max. Resp. (%) (PKM2) | AC50 (PKM2; [5]) [nM] | further results |
| --- | --- | --- | --- |
| Cc1cccc2nc(Cn3cnc4ccccc43)cc(=O)n12 [PP8] |  | 159 | glutathione levels (GSH-Glo) (A549 cells [3]): decreased levels of glutathione |
| CCN(CC)CCN(Cc1cc(F)ccc1Cl)C(=O)c1cc(C(F)(F)F)n[nH]1 [Compound 171] | 100 |  | AC50 (PKM2): 88 nM |
| CCOCCN(Cc1ccc(O)cc1F)C(=O)c1cc(C(F)(F)F)n[nH]1 [Compound 24] | 100 | 210 |  |
| O=C(c1cc(C(F)(F)F)n[nH]1)N(Cc1ccccc1F)c1ncco1 [Compound 25] | 35 | 53000 |  |
| O=C(c1cc(C(F)(F)F)n[nH]1)N(CCN1CCCCC1)Cc1ccccc1Cl [Compound 173] | 100 | 66 |  |
| O=C(c1cc(C(F)(F)F)n[nH]1)N(CCN1CCCCCC1)Cc1ccc(O)cc1F [Compound 195] | 100 |  | AC50 (PKM2): 95 nM |
| O=C(c1cc(C(F)(F)F)n[nH]1)N(Cc1cccc2[nH]ccc12)CC1CCC1 [Compound 6] | 100 |  |  |
| Cc1ccc2nc(Cn3c(Cc4ccccc4)nc4ccccc43)cc(=O)n2c1 [PP1] | 148 | 3500 |  |
| COc1cc(C(=O)CCSC(=S)NCc2cccnc2)cc(OC)c1OC [PMA22] | 131 | 10100 |  |
| O=C(CCSC(=S)NCc1cccnc1)c1ccc(Cl)cc1 [PMA9] |  | > 20000 |  |
| COc1c(N)cccc1CN(CCN1CCCCCC1)C(=O)c1cc(C(F)(F)F)n[nH]1 [Compound 217] | 100 | 230 |  |
| O=C(c1cc(C(F)(F)F)n[nH]1)N(CCC1CCOC1)Cc1ccccc1Cl (stereo not drawn) [Compound 43] | 110 |  | AC50 (PKM2): 1330 nM |
| O=C(c1cc(C(F)(F)F)n[nH]1)N(CCN1CCCC1)Cc1cccc2[nH]cc(F)c12 [Compound 206] | 100 | 136 |  |
| CN1CCC(CCN(Cc2ccccc2Cl)C(=O)c2cc(C(F)(F)F)n[nH]2)CC1 [Compound 102] | 71 | 767 |  |
| O=C(c1cc(C(F)(F)F)n[nH]1)N(CCC1CCS(=O)(=O)C1)Cc1cc(F)ccc1F (stereo not drawn) [Compound 70] | 91 | 884 |  |
| CCN(CC)CCN(Cc1ccccc1F)C(=O)c1cc(C(F)(F)F)n[nH]1 [Compound 148] | 100 |  | AC50 (PKM2): 505 nM |
| O=C(c1cc(C(F)(F)F)n[nH]1)N(CCC1CCS(=O)(=O)C1)Cc1cccc(F)c1 (stereo not drawn) [Compound 67] | 95 |  | AC50 (PKM2): 1630 nM |
| CCN1CCC(CCN(Cc2c(Cl)cccc2Cl)C(=O)c2cc(C(F)(F)F)n[nH]2)CC1 [Compound 105] | 71 | 3270 |  |
| NC1CC(N(Cc2ccccc2Cl)C(=O)c2cc(C(F)(F)F)n[nH]2)C1 (stereo not drawn) [Compound 226] | 80 | 12000 |  |
| N#Cc1cc(C(=O)N(Cc2ccc(O)cc2F)CC2CCC2)[nH]n1 [Compound 2] | 39 |  | AC50 (PKM2): 3790 nM |
| O=C(c1cc(Br)n[nH]1)N(Cc1cccc2[nH]cnc12)CC1CCC1 [Compound 120] | 100 |  |  |
| CCN(CC)CCN(Cc1ccc(F)cc1Cl)C(=O)c1cc(C(F)(F)F)n[nH]1 [Compound 170] | 100 |  | AC50 (PKM2): 505 nM |
